{"source": "paper PMC5007978", "about": "“A chemical with proven clinical safety rescues Down-syndrome-related phenotypes in through DYRK1A inhibition” (Disease Models & Mechanisms, 2016)", "key": {"[1]": {"tested_on": "DYRK1A", "assay": "Tau phosphorylation (T212) in the hippocampus of DYRK1A transgenic mouse after oral administration", "type": "in vivo", "description": "This mouse model has 50% higher expression of DYRK1A compared with a normal mouse, and increased Tau phosphorylation at T212 in the hippocampus has been well documented ([Ryoo et al., 2007]). Indeed, this phenomenon was also confirmed in our experiment.\nFig. 7. […] (A) Hippocampuses from normal and DYRK1A-overexpressing C57BL/6 mice (n=5 for each) were harvested, and the phosphorylation of Tau was analyzed by western blotting with anti-phosphorylated-Tau (at residue T212; p-Tau) and anti-Tau antibodies. α-Tubulin was also analyzed as a loading control. (B) The phosphorylated and total Tau proteins in panel A were quantified, and the mean amount of each protein was calculated. […] Total cell lysates were prepared and subjected to western blotting with the indicated antibodies. α-Tubulin was also analyzed as a loading control. (D) The phosphorylated and total Tau proteins in panel C were quantified, and the mean amount of each protein across the animals was calculated. Relative ratios of phosphorylated Tau to total Tau were calculated by setting the value from DYRK1A mice that had been treated with DMSO as 100%. […]\nDYRK1A transgenic mice with three copies of the human DYRK1A gene were maintained as described previously ([Ahn et al., 2006]). […] The protein concentration was determined using the Bradford protein assay (Bio-Rad). […]"}, "[2]": {"molecular_target": "T1, DYRK4 (Homo sapiens, UniProt Q9NR20)", "T1 construct": "purchased Life Technologies (Kinase Profiler service)", "T1 sequence (Q9NR20 1-520)": "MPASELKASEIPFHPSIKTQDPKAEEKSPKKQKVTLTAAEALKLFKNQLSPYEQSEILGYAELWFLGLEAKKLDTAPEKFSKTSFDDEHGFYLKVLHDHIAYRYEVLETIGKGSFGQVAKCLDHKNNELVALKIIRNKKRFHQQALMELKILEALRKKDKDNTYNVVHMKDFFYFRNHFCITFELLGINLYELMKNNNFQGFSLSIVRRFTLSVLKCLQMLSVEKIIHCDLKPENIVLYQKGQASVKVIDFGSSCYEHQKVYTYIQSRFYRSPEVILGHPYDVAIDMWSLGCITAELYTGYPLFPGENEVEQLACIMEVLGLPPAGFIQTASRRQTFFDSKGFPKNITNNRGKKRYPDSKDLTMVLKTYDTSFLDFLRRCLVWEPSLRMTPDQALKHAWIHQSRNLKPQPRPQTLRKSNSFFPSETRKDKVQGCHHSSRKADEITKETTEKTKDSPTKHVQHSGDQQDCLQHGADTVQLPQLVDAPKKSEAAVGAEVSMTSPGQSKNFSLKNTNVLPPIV", "assay": "In vitro kinase assay, recombinant human DYRK4 (Life Technologies)", "type": "biochemical"}, "[3]": {"molecular_target": "T2, DYRK1A (Homo sapiens, UniProt Q13627)", "assay": "DYRK1A kinase activity at various ATP and CX-4945 concentrations (Lineweaver-Burk)", "type": "biochemical", "design": "purchased Life Technologies (Kinase Profiler service)", "conditions": "ATP 50, 75, 100, 150 and 200 μM; Lineweaver-Burk plots", "description": "Fig. 2. […] Data are mean±s.d. […] Hydrogen bonds are denoted as dotted black lines, and oxygen, nitrogen and chlorine atoms are indicated as red, blue and green sticks, respectively.\nKinase assays were conducted using the Kinase Profiler services offered by Life Technologies, which utilizes a fluorescence-based immunoassay. Detailed protocols can be found at http://www.lifetechnologies.com/kinaseprofiling. […] All experiments were performed twice."}, "[4]": {"molecular_target": "T2, DYRK1A", "assay": "DYRK1A-mediated Tau (T212) phosphorylation in transfected 293T cells, western blot", "type": "cell-based", "design": "expressed in transfected cells; host or cells: 293T cells"}, "[5]": {"molecular_target": "T3, DYRK3 (Homo sapiens, UniProt O43781)", "T3 construct": "purchased Life Technologies (Kinase Profiler service)", "T3 sequence (O43781 1-588)": "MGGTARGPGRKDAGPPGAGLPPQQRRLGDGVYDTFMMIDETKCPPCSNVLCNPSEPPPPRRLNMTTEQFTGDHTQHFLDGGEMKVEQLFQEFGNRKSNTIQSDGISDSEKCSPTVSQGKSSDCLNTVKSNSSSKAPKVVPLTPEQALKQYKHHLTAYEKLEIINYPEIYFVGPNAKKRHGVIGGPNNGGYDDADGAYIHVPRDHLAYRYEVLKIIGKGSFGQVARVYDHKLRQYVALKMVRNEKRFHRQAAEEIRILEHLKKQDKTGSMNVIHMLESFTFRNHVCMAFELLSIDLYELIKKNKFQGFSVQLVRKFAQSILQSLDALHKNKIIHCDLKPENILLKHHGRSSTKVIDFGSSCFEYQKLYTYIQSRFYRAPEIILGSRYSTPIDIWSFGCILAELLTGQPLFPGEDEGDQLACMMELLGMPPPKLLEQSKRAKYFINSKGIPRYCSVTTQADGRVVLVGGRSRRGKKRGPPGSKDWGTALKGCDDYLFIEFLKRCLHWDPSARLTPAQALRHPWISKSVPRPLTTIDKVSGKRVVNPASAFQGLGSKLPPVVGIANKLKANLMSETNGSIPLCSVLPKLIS", "assay": "In vitro kinase assay, recombinant human DYRK3 (Life Technologies)", "type": "biochemical"}}}
{"compound": "O=C(O)c1ccc2c(c1)nc(Nc1cccc(Cl)c1)c1ccncc12", "note": "[CX-4945]", "values": [{"measurement": "phosphorylation of Tau (T212) in hippocampus", "setting": "[1]; DYRK1A-overexpressing C57BL/6 mice, 75 mg/kg oral, 30 min", "result": "remarkably decreased"}, {"measurement": "blood-brain barrier penetration", "setting": "[1]; inferred from hippocampal Tau phosphorylation after oral 75 mg/kg", "result": "efficiently penetrates the blood-brain barrier"}, {"measurement": "IC50", "setting": "[2]", "result": 1500, "unit": "nM"}, {"measurement": "mode of DYRK1A inhibition", "setting": "[3]", "result": "ATP-competitive manner"}, {"measurement": "inhibition of Tau phosphorylation at 0.1 μM", "setting": "[4]; 0.1 μM", "result": "Moderate inhibition"}, {"measurement": "inhibition of Tau phosphorylation at 1 μM", "setting": "[4]; 1 μM", "result": "almost complete inhibition"}, {"measurement": "IC50", "setting": "[5]", "result": 18, "unit": "nM"}]}
